In patent US20060127957A1, “Novel biologicalcancer marker and methods for determining the cancerous or non-cancerous phenotype of cells” (priority 2002, published 2006):

Key:
MEF = assay: Filopodia formation in MEF (F-actin staining, cells with at least 5 filopodia scored positive); format: cell-based, mouse; settings: pretreated for 10 hours (TNFα 100 ng.ml^−1, adriamycin 5 μg.ml^−1, etoposide 25 μg.ml^−1), followed by 12 minutes bradykinin; bradykinin alone 62%
Excerpt: (§1) Human wild type p53 cDNA or its mutated forms, H175 and H273 were cloned into the BamH1 site of pCDNA3 vector (Invitrogen), then transferred in pEGFPC1 (Clontech) to give GFP-tagged proteins. Constructs expressing MYC epitope-tagged mutant Rac1, Cdc42 and RhoA proteins and their various mutants were kindly provided by P. Chavrier (Dutartre et al., 1996). The GFP fusion proteins were cloned in the pEGFP-C1 vector (Gauthier-Rouviere et al., 1998), (Ory et al., 2000), (Roux et al., 1997). The pcDNA3myc-NWASP containing the Cdc42-interacting domain of WASP was previously described in (Philips et al., 2000). The pGL2B-mdm2 plasmid in which the reporter gene luciferase is controlled by the p53-responsive element of mdm2 (Barak et al., 1994) was a kind gift of E. Yonish-Rouach. pTKRL plasmid was from Promega. TNFα, adriamycin and etoposide (Sigma) were used in all experiments at the concentration of 100 ng.ml^−1, 5 μg.ml^−1 and 25 μg.ml^−1, respectively.
Cdc42-dependent filopodia formation was induced by bradykinin (Kozma et al., 1995; Nobes and Hall, 1995a). p53 was activated either by Tumor Necrosis Factor-a (TNFa), or using two cytotoxic drugs adriamycin and etoposide, previously shown to induce accumulation of p53 in MEF (Klefstrom et al., 1997; Lowe et al., 1993).

[1] = test system: p53-responsive element of mdm2; assay: p53 transactivation assay (dual-luciferase, mdm2 promoter reporter) in MEF; format: cell-based, mouse; settings: MEF treated for 10 hours, TNFα 100 ng.ml^−1, adriamycin 5 μg.ml^−1, etoposide 25 μg.ml^−1; for activation of the p53-responsive element (luciferase activity): luciferase assayed 24 hours after transfection
Experimental: A: MEF were transfected with the firefly luciferase gene under the control of the mdm2 promoter and treated for 10 hours either with TNFa adriamycin, or etoposide. The luciferase activity was assayed 24 hours after transfection. The p53 responsive element construct was transfected in combination with either p53wt, as a positive control, or with the dominant negative mutants p53-H273 or p53-H175. The luciferase activity was assayed 24 hours later. The results are shown as mean+/−S.D. of four measurements.
as §1
p53 transactivation was measured using the dual-luciferase assay system from Promega. Cells (5×10^4) were seeded onto twelve-well plates and transfected 18 hours later in OptiMEM containing 0.440 μg of DNA (0.2 μg of appropriate GTPase plasmids, 0.2 μg of pGL2B-mdm2-luciferase plasmid and 0.04 μg of pTKRL plasmid) using 0.33 μl of Lipofectamine (Gibco-BRL) for 4 h. Cells were then left for 24 h in DMEM supplemented with 10% FCS, harvested in […] of Passive Lysis Buffer (PLB, Promega), and luciferase activity was measured following the Dual-luciferase™ Reporter Assay Protocol as recommended by Promega, using a luminometer fitted with two injectors (Berthold).
Cdc42-dependent filopodia formation was induced by bradykinin (Kozma et al., 1995; Nobes and Hall, 1995a). p53 was activated either by Tumor Necrosis Factor-a (TNFa), or using two cytotoxic drugs adriamycin and etoposide, previously shown to induce accumulation of p53 in MEF (Klefstrom et al., 1997; Lowe et al., 1993). […] Finally, we monitored the effect of p53 upregulation by TNFα, etoposide and adriamycin on Cdc42-dependent filopodia formation by bradykinin.

| Compound | MEF having filopodia (bradykinin-mediated filopodia formation after pretreatment) (MEF) [%] | activation of the p53-responsive element as % of the value obtained with the positive control (p53 wt) [1] [%] | activation of the p53-responsive element (luciferase activity) [1] |
| --- | --- | --- | --- |
| Tumor Necrosis Factor-a [TNFα] | 28 | 36 | twenty eight-fold |
| COc1cc([C@@H]2c3cc4c(cc3[C@@H](O[C@@H]3O[C@@H]5CO[C@@H](C)O[C@H]5[C@H](O)[C@H]3O)[C@H]3COC(=O)[C@H]23)OCO4)cc(OC)c1O [etoposide] | 20 | 30 | twenty four-fold |
| COc1cccc2c1C(=O)c1c(O)c3c(c(O)c1C2=O)C[C@@](O)(C(=O)CO)C[C@@H]3O[C@H]1C[C@H](N)[C@H](O)[C@H](C)O1 [adriamycin] | 16 | 23 | nineteen-fold |
